Source: BigSolDB 2.1

Details: in water

CC(C)Br
Details	solubility (mole fraction)
295.25 K	0.000587
300.15 K	0.00082
303.55 K	0.00104
306.25 K	0.00121
310.35 K	0.00157
313.25 K	0.00189
316.15 K	0.00227
321.25 K	0.00307
323.25 K	0.00343
325.55 K	0.00394
329.35 K	0.00483
331.25 K	0.00536
334.15 K	0.0063
337.35 K	0.00743
340.55 K	0.0087
343.15 K	0.0101
345.45 K	0.0112
348.55 K	0.0127
350.15 K	0.0139
352.35 K	0.0154
354.75 K	0.0171

NC(N)=S
Details	solubility (mole fraction)
290.75 K	0.0256
293.05 K	0.0289
296.65 K	0.0347
300.25 K	0.0413
303.15 K	0.0474
307.1 K	0.0583
310.15 K	0.0641
313.15 K	0.071
315.85 K	0.0806
318.35 K	0.0886
320.75 K	0.0969
323.25 K	0.103
326.05 K	0.116
328.45 K	0.126
330.55 K	0.135
333.25 K	0.15
336.45 K	0.161
340.75 K	0.183
343.55 K	0.198
347.35 K	0.218
351.15 K	0.239
353.45 K	0.251
355.75 K	0.265
